Assay results from patent publication US20200247815A1, “PYRAZOLYL-CONTAINING TRICYCLIC DERIVATIVE, PREPARATION METHOD THEREFOR AND USE THEREOF” (Jiangsu Hansoh Pharmaceutical Group Co., Ltd., priority 2017, published 2020).

Legend:
ERK-1 kinase = target: T1, ERK-1 kinase (Homo sapiens, UniProt P27361); assay: Inhibition of ERK-1 kinase activity (LANCE Ultra TR-FRET); assay type: biochemical; details: ERK1 enzyme 0.4 nM, ATP 38.15 μM
T1 construct: purchased Invitrogen PV3311
Procedure: (§1) The object of this test example is to determine the inhibition effect of the compound on ERK-1 kinase activity. In vitro ERK-1 kinase analysis was carried out by using LANCE Ultra (Perkin Elmer) method. The reaction (reaction system 10 μL) was conducted by adding 2.5 μL of test compound/DMSO (final 4%, V/V, diluted to 10 concentrations (400 nM to 0.02 nM) using a 1:3 dilution scheme), 5 μL of a mixed solution of ERK1 enzyme (Invitrogen, # PV3311, final concentration: 0.4 nM) and substrate Ulight-MBP peptide (Perkin Elmer, # TRF0109-M, final concentration: 0.5 μM) formulated with a kinase buffer (50 mM Hepes pH 7.4, 10 mM MgCl2, 1 mM EGTA, 0.01% Triton X-100, 2 mM DTT) and 2.5 μL of ATP solution (Invitrogen, # PV3227, final concentration: 38.15 μM) formulated with the same buffer successively to a 384-well plate (Perkin Elmer OPTIPLATE™) and mixing well. The reaction mixture was incubated at room temperature for 60 minutes. The reaction was stopped by adding 1× LANCE Detection buffer (PerkinElmer # CR97-100) diluted with ultra-pure water, mM EDTA (Invitrogen #15575038) and 1 nM Eu-anti-p-MBP (PerkinElmer # TRF0201-M) antibody in 10 μL/well. The plate was incubated at room temperature for 60 minutes. Excitation reading was performed on Synergy H1 Hybird Reader, H1MFD (Biotek) with an excitation wavelength of 320 nm. TR-FRET rate was calculated by dividing the acceptor emission signal (signal value at 665 nM) by the Eu donor emission signal (signal value at 615 nM). The inhibition TR-FRET rate of the well treated by the compound was calculated relative to the Max signal (DMSO control) and Min signal (no enzyme added) control wells on the plate {% inhibition rate=100−[(test compound−Min average)]/(Max average−Min average)×100}. The 10 concentrations of the compound after 4-fold dilution of the reaction system were 100 nM to 0.005 nM. Abs_IC50 value was calculated by using GraphPad prism fits percentage inhibition rate and ten-point concentration data in a 4-parameter non-linear logic formula.

ERK-2 kinase = target: T2, ERK-2 kinase (Homo sapiens, UniProt P28482); assay: Inhibition of ERK-2 kinase activity (LANCE Ultra TR-FRET); assay type: biochemical; details: ERK-2 enzyme 0.08 nM, ATP 38.15 μM
T2 construct: purchased Invitrogen PV3313
Procedure: as §1, with “ERK-2” for “ERK-1”, “ERK-2” for “ERK1”, “PV3313,” for “PV3311,”, “0.08” for “0.4”, “EGTA” for “EGTA,”, “IX” for “1×”

T1 sequence (P27361 whole entry): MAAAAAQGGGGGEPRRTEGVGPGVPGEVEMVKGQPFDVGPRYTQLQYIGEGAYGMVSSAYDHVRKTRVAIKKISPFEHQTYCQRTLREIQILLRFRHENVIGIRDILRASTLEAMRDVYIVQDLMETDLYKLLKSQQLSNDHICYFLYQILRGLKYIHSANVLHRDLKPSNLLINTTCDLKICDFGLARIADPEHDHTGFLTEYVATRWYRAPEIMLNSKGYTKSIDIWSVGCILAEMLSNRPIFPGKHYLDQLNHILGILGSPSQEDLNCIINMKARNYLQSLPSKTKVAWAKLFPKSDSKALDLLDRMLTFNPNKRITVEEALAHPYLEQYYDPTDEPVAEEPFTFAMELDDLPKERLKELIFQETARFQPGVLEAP
T2 sequence (P28482 whole entry): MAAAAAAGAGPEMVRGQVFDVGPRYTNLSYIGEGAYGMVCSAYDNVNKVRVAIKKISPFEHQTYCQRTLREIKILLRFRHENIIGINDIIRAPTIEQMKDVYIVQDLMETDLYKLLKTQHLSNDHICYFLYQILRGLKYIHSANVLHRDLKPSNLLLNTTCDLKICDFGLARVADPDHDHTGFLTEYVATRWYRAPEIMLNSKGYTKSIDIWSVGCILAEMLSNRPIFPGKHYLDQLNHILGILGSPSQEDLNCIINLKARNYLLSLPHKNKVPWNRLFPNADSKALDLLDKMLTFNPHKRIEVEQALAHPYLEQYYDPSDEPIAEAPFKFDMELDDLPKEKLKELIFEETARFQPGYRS

IC50 (ERK-1 kinase)	IC50 (ERK-2 kinase)	Compound
5.48 nM	3.95 nM	COc1ccc(CNC(=O)c2nc3cc4c(-c5ccncc5)n[nH]c4cc3[nH]2)cc1OC [Example 3, N-(3,4-dimethoxybenzyl)-3-(pyridin-4-yl)-1,7-dihydroimidazo[4,5-f]indazole-6-carboxamide]
0.65 nM	0.21 nM	COC(CNC(=O)c1nc2cc3c(-c4ccncc4)n[nH]c3cc2[nH]1)c1ccccc1 (stereo not shown) [Example 78, N-(2-methoxy-2-phenylethyl)-3-(pyridin-4-yl)-1,7-dihydroimidazo[4,5-f]indazole-6-carboxamide]
2.18 nM	0.85 nM	CN(NC(=O)c1nc2cc3c(-c4ccncc4)n[nH]c3cc2[nH]1)c1ccccc1 [Example 77, N′-methyl-N′-phenyl-3-(pyridin-4-yl)-1,7-dihydroimidazo[4,5-f]indazole-6-carbohydrazide]
0.22 nM	0.06 nM	O=C(N[C@H](CO)c1ccccc1)c1nc2cc3c(-c4ccncc4)n[nH]c3cc2[nH]1 [Example 20, (S)—N-(2-hydroxy-1-phenylethyl)-3-(pyridin-4-yl)-1,7-dihydroimidazo[4,5-f]indazole-6-carboxamide]
0.52 nM	0.18 nM	C[C@@H](NC(=O)c1nc2cc3c(-c4ccnc(F)c4)n[nH]c3cc2[nH]1)c1ccccc1 [Example 37, (R)-3-(2-fluoropyridin-4-yl)-N-(1-phenylethyl)-1,7-dihydroimidazo[4,5-f]indazole-6-carboxamide]
1.31 nM	0.87 nM	O=C(N[C@H](CNCC(F)F)c1ccccc1)c1nc2cc3c(-c4ccncc4)n[nH]c3cc2[nH]1 [Example 89, (S)—N-(2-((2,2-difluoroethyl)amino)-1-phenylethyl)-3-(pyridin-4-yl)-1,7-dihydroimidazo[4,5-f]indazole-6-carboxamide]
1.54 nM	0.75 nM	C[C@@H](OC(=O)c1nc2cc3c(-c4ccncc4)n[nH]c3cc2[nH]1)c1ccccc1 [Example 35, (R)-1-phenylethyl 3-(pyridin-4-yl)-1,7-dihydroimidazo[4,5-f]indazole-6-carboxylate]
3.43 nM	3.08 nM	CC(C)Oc1ccc(-c2n[nH]c3cc4[nH]c(C(=O)N[C@H](C)c5ccccc5)nc4cc23)cn1 [Example 85, (R)-3-(6-isopropoxypyridin-3-yl)-N-(1-phenylethyl)-1,7-dihydroimidazo[4,5-f]indazole-6-carboxamide]
0.75 nM	0.3 nM	C[C@@H](NC(=O)c1nc2cc3c(-c4cc[n+]([O-])cc4)n[nH]c3cc2[nH]1)c1ccccc1 [Example 97, (R)-4-(6-((1-phenylethyl)carbamoyl)-1,7-dihydroimidazo[4,5-f]indazol-3-yl)pyridine-N-oxide]
2.93 nM	2.88 nM	C[C@@H](NC(=O)c1nc2cc3c(-c4ccncc4)n[nH]c3cc2[nH]1)c1ccc(F)c(Cl)c1 [Example 63, (R)—N-(1-(3-chloro-4-fluorophenyl)ethyl)-3-(pyridin-4-yl)-1,7-dihydroimidazo[4,5-f]indazole-6-carboxamide]
2.27 nM	0.99 nM	C[C@@H](NC(=O)c1nc2cc3c(-c4ccncc4)n[nH]c3cc2[nH]1)c1cccc(C2CC2)c1 [Example 88, (R)—N-(1-(3-cyclopropylphenyl)ethyl)-3-(pyridin-4-yl)-1,7-dihydroimidazo[4,5-f]indazole-6-carboxamide]
3.3 nM	1.7 nM	C[C@@H](NC(=O)c1nc2cc3c(-c4ccncc4)n[nH]c3c(Cl)c2[nH]1)c1ccccc1 [Example 46, (R)-8-chloro-N-(1-phenylethyl)-3-(pyridin-4-yl)-1,7-dihydroimidazo[4,5-f]indazole-6-carboxamide]
0.95 nM	0.66 nM	Cc1cccc(C(C)NC(=O)c2nc3cc4c(-c5ccncc5)n[nH]c4cc3[nH]2)n1 (stereo not shown) [Example 44, N-(1-(6-methylpyridin-2-yl)ethyl)-3-(pyridin-4-yl)-1,7-dihydroimidazo[4,5-f]indazole-6-carboxamide]
8.6 nM	3.13 nM	C[C@@H](NC(=O)c1nc2cc3c(-c4ccncc4)n[nH]c3cc2[nH]1)c1ccccn1 [Example 9, (R)—N-(1-(pyridin-2-yl)ethyl)-3-(pyridin-4-yl)-1,7-dihydroimidazo[4,5-f]indazole-6-carboxamide]
9.48 nM	5.07 nM	C[C@@H](NC(=O)c1nc2cc3c(-c4ccncc4)n[nH]c3cc2[nH]1)c1ccc([N+](=O)[O-])cc1 [Example 14, (R)—N-(1-(4-nitrophenyl)ethyl)-3-(pyridin-4-yl)-1,7-dihydroimidazo[4,5-f]indazole-6-carboxamide]
0.79 nM	0.34 nM	N#C[C@@H](NC(=O)c1nc2cc3c(-c4ccncc4)n[nH]c3cc2[nH]1)c1ccccc1 [Example 34, (S)—N-(cyano(phenyl)methyl)-3-(pyridin-4-yl)-1,7-dihydroimidazo[4,5-f]indazole-6-carboxamide]
1.77 nM	1.67 nM	CN(C)C[C@@H](NC(=O)c1nc2cc3c(-c4ccncc4)n[nH]c3cc2[nH]1)c1ccccc1 [Example 90, (S)—N-(2-(dimethylamino)-1-phenylethyl)-3-(pyridin-4-yl)-1,7-dihydroimidazo[4,5-f]indazole-6-carboxamide]
2.42 nM	0.91 nM	CC(NC(=O)c1nc2cc3c(-c4ccncc4)n[nH]c3cc2[nH]1)c1cnccn1 (stereo not shown) [Example 51, N-(1-(pyrazin-2-yl)ethyl)-3-(pyridin-4-yl)-1,7-dihydroimidazo[4,5-f]indazole-6-carboxamide]
1 nM	0.73 nM	C[C@@H](NC(=O)c1nc2cc3c(-c4ccncc4)n[nH]c3cc2[nH]1)c1cccc(C(F)(F)F)c1 [Example 16, (R)-3-(pyridin-4-yl)-N-(1-(3-(trifluoromethyl)phenyl)ethyl)-1,7-dihydroimidazo[4,5-f]indazole-6-carboxamide]
3.51 nM	1.43 nM	C[C@@H](NC(=O)c1nc2cc3c(-c4ccncn4)n[nH]c3cc2[nH]1)c1ccccc1 [Example 57, (R)—N-(1-phenylethyl)-3-(pyrimidin-4-yl)-1,7-dihydroimidazo[4,5-f]indazole-6-carboxamide]
2.24 nM	5.85 nM	C[C@@H](NC(=O)c1nc2cc3c(C4=CCC(=O)CC4)n[nH]c3cc2[nH]1)c1ccccc1 [Example 94, (R)-3-(4-oxocyclohex-1-en-1-yl)-N-(1-phenylethyl)-1,7-dihydroimidazo[4,5-f]indazole-6-carboxamide]
3.01 nM	1.39 nM	COC[C@@H](NC(=O)c1nc2cc3c(-c4ccncc4)n[nH]c3cc2[nH]1)c1ccccc1 [Example 13, (S)—N-(2-methoxy-1-phenylethyl)-3-(pyridin-4-yl)-1,7-dihydroimidazo[4,5-f]indazole-6-carboxamide]
1.44 nM	0.69 nM	C[C@H](CNC(=O)c1nc2cc3c(-c4ccncc4)n[nH]c3cc2[nH]1)c1ccccc1 [Example 67, (S)—N-(2-phenylpropyl)-3-(pyridin-4-yl)-1,7-dihydroimidazo[4,5-f]indazole-6-carboxamide]
